Assay results published in patent publication US6160166A, “Phosphonated agents and their antiangiogenic and antitumorigenic use” (priority 1999, dated 2000).
pIC50: −log10 of the molar value. “Also recorded” adds a separate entry of the source.

How the values were obtained:
[1] = tested on: angiogenesis in mouse (Matrigel plus bFGF and heparin); details: Pesenti et al. (1992); cited from earlier work
[2] = molecular target: cyclic AMP-dependent protein kinase; details: Mahoney et al., 1990; cited from earlier work
[3] = tested on: MCF-7 human breast cancer cells; details: 48 hr (Foekens et al., 1993); cited from earlier work
[4] = tested on: human microvascular endothelial cells; test: Detachment / toxicity of cultured human microvascular endothelial cells; format: cell-based
[5] = tested on: chick chorioallantoic membrane (CAM); test: Chick egg chorioallantoic membrane (CAM) assay, 6-day, growing vessels: inhibition of angiogenesis; format: in vivo
Text: The purpose of this experiment was to test the ability of the phosphonic acid agents described above to inhibit angiogenesis. […]
Comparison of the inhibition of angiogenesis by 70 nmol of
suramin or a equimolar amount of a phosphonic acid agents in the
6-day and 11-day chick egg chorioallantoic (CAM) assay.

p34cdc2 kinase = p34cdc2 kinase activity and tyrosine phosphorylation; format: biochemical, human
Method: The effects of selected phosphonic acid agents on the p34cdc2-related kinase activity are carried out essentially as described by Bojanowski et al. (1994).
Cytoplasmic and nuclear extractions: 100 million cells (HMVEC-1 or HMEC-d) are washed twice with cold PBS and incubated in hypotonic phosphate buffer for 45 min on ice. The cells are then disrupted with a Dounce homogenizer and nuclei separated from the cytoplasmic fraction by centrifugation and extensive washing with hypotonic buffer. The nuclei are incubated for 30 min in the presence of 350 mM NaCl and the nonsoluble nuclear material removed by ultracentrifugation (20 min at 40000 rpm in TL 100 Beckman ultracentrifuge). The protein concentration are adjusted to 1.5 mg/ml, 20% of glycerol are added and the extracts stored at -20° C. […]
Reactions are stopped by placing the samples on ice and spotting 5 μl of the reaction mixture onto P81 phosphocellulose filters (Whatman). Filters are washed three times in 50 mM phosphoric acid, dried and the radioactivity retained on the filters are determined by liquid scintillation (Beckman).
Western blot: the precipitates are electrophoresed in 12.5% 12×12 cm ready-made polyacrylamide gels (Daichi Co.) and the proteins transferred to Immobilon PVDF membranes (Millipore). […] A Pharmacia LKB image master DTS chromoscan are used for band quantification (Bojanowski et al., 1994).

[6] = tested on: human microvascular endothelial cells; test: Sensitivity of microvascular versus large vessel endothelium to inhibition; format: cell-based
[7] = tested on: binding of growth factors to their receptors; details: intact cells; cited from earlier work
HMEC-1 = HMEC-1 cell growth, total protein and total DNA; format: cell-based, human
Method: Logarithmically growing HMEC-1 or HMVEC-d cells are seeded at 2×10^4 cells/well in six well plates (Falcon) containing 2 ml of MCDB-131 medium supplemented with 5% fetal bovine serum (FBS) (Hyclone). […] After removal of medium, the cell layer is washed twice with 1 ml of cold Hanks balanced salt solution and the cells are dislodged by trypsinization. The cells are collected in microcentrifuge tubes and washed twice with 1 ml of cold phosphate-buffered saline, and then 1 ml of cold 10% trichloroacetic acid are added. Acid precipitable radioactivity are collected on a glass fiber filter (Whatman Grade GF/C) and the radioactivity is determined in a liquid scintillation spectrometer (Packard).

[8] = tested on: fetal bovine aortic endothelial cells; details: Takano et al., 1994; cited from earlier work

Method for HMEC-1 cells: Triplicates were carried out for each period of incubation. At the end of each incubation period, the cells were processed through different washings and finally to differential centrifugation. Different cell fractions were transferred to separate scintillation vials, solubilized in a liquid scintillation cocktail and counted in a 2000 CA TRICARB Liquid Scintillation Counter.

Cc1ccc(C(=O)Nc2ccc(S(=O)(=O)O)c3cc(S(=O)(=O)O)cc(S(=O)(=O)O)c23)cc1NC(=O)c1cccc(NC(=O)Nc2cccc(C(=O)Nc3cc(C(=O)Nc4ccc(S(=O)(=O)O)c5cc(S(=O)(=O)O)cc(S(=O)(=O)O)c45)ccc3C)c2)c1 [suramin]
inhibition of angiogenesis in vivo, in words [1]: effective inhibitor of angiogenesis in vivo | pIC50 [2]: 3.18 | time to plateau of cell incorporation (HMEC-1 cells): around 24 hr | effect on cell cycle [3]: accumulation of MCF-7 human breast cancer cells in the G2-M phase of the cell cycle | floating cells ([4]; 24 hr of treatment): a large number of floating cells | time for detection of suramin toxicity on endothelial cells ([4]; concentrations higher than 200 μM): > 12 h | 6-day CAM % Inhibition of angiogenesis ([5]; 70 nmol or equimolar amount, 6-day CAM): 64% | inhibition of angiogenesis in the 6-day CAM, in words ([5]; 6-day CAM, rapidly growing vessels): showed antiangiogenic activity; also recorded: clearly affected both the growing and established vascular cells | ID50, dose that produces 50% inhibition of angiogenesis ([5]; CAM assay): 75 nmol | inhibition of p34cdc2 kinase (p34cdc2 kinase): inhibits p34cdc2 kinase activity in a dose-related manner | p34cdc2 kinase tyrosine phosphorylation / mobility (p34cdc2 kinase; Western blot, anti-phosphotyrosine immunoblot): a difference in p34cdc2 kinase tyrosine phosphorylation | sensitivity of microvascular versus large vessel endothelium [6]: much more sensitive to inhibition | effect on binding of growth factors to their receptors [7]: able to disrupt the binding of growth factors to their receptors in intact cells | effect on cell growth (HMEC-1; 50-100 μg/ml): stimulatory effect on cell growth | effect on total protein and total DNA (HMEC-1; suramin higher than 250 μg/ml, agents lower concentrations): significant dose-related reduction in total protein and total DNA | effect on HMEC-1 cell growth (HMEC-1; up to 100 μg/ml): did not have any significant inhibitory effect | concentration inhibiting plasminogen activator activity induced by bFGF [8]: higher than 250 μg/ml
